Measurements as given in patent US8501770B2 (ArQule, Inc., priority 2009, dated 2013).
Counter-ions that a name gives are not always drawn.

Biological target: Full-length inactive AKT1 (Homo sapiens, UniProt P31749)
Assay: Inactive Akt Alpha Screen Assay
Format: biochemical
Details: AlphaScreen assay (values not marked with *); read-out: Akt1 IC50, (AlphaScreen) (μM) (or if marked with “*” HTRF assay)
Experimental: AKT1 activity was assayed using the GSK3-derived biotinylated peptide substrate, crosstide (biotin-[…]), and AlphaScreen™ (Amplified Luminescent Proximity Homogeneous Assay) technology. AKT1 activation was achieved by the addition of the activating kinases PDK1 and MAPKAPK2, lipid vesicles, and ATP. The extent of peptide phosphorylation was determined using a phospho-AKT substrate antibody and acceptor beads conjugated to Protein A and donor beads conjugated to streptavidin that bind to the biotin on the peptide. Excitation of the donor beads converted ambient oxygen to excited singlet oxygen which, when in close proximity to acceptor beads, reacted with acceptor beads resulting in signal amplification.
Assay plates were incubated for 90 minutes at room temperature in the dark, and the plates were read on a Perkin Elmer Envision Multilabel plate reader (excitation wavelength: […], emission wavelength: 570 nm).

Chain of Full-length inactive AKT1 (P31749 whole entry): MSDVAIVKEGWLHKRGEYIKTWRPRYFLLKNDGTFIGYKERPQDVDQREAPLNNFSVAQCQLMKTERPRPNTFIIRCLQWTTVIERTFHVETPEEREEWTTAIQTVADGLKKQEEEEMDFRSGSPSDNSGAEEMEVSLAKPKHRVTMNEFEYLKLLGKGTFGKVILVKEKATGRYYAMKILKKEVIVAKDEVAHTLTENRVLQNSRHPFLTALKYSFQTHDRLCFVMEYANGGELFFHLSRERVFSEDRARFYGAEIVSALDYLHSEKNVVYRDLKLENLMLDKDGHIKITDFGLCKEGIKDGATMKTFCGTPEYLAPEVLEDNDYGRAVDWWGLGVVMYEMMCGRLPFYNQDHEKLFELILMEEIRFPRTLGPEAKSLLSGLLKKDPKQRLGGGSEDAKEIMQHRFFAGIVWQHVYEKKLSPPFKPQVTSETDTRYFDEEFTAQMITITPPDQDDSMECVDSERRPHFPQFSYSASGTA

Row | SMILES | IC50 [µM]
1 | Nc1ncccc1-c1nc2ccc(-c3ccc(F)c(O)c3)nc2n1-c1ccc(C2(N)CCC2)cc1 [Example 436, 5-{3-[4-(1-aminocyclobutyl)phenyl]-2-(2-aminopyridin-3-yl)-3H-imidazo[4,5-b]pyridin-5-yl}-2-fluorophenol] | 0.0078
2 | Nc1ncccc1-c1nc2ccc(-c3cccc(N4CCC(O)CC4)c3)nc2n1-c1ccc(C2(N)CCC2)cc1 [Example 462, 1-(3-{3-[4-(1-aminocyclobutyl)phenyl]-2-(2-aminopyridin-3-yl)-3H-imidazo[4,5-b]pyridin-5-yl}phenyl)piperidin-4-ol] | 0.01
3 | Nc1ncccc1-c1nc2ccc(-c3cccc4c3CC(=O)N4)nc2n1-c1ccc(C2(N)CCC2)cc1 [Example 454, 4-{3-[4-(1-aminocyclobutyl)phenyl]-2-(2-aminopyridin-3-yl)-3H-imidazo[4,5-b]pyridin-5-yl}-1,3-dihydro-2H-indol-2-one] | 0.0094
4 | Nc1ncccc1-c1nc2ccc(-c3cccc(-n4cccn4)c3)nc2n1-c1ccc(C2(N)CCC2)cc1 [Example 456, 3-{3-[4-(1-aminocyclobutyl)phenyl]-5-[3-(1H-pyrazol-1-yl)phenyl]-3H-imidazo[4,5-b]pyridin-2-yl}pyridin-2-amine] | 0.0031
5 | Nc1ncccc1-c1nc2ccc(-c3cccc(N4CCOCC4)n3)nc2n1-c1ccc(C2(N)CCC2)cc1 [Example 451, 3-{3-[4-(1-aminocyclobutyl)phenyl]-5-(6-morpholin-4-ylpyridin-2-yl)-3H-imidazo[4,5-b]pyridin-2-yl}pyridin-2-amine] | 0.0071

Same assay, conditions: values not marked with "*": AlphaScreen assay; read-out: Akt1 IC50, (AlphaScreen)

Row | SMILES | IC50 [µM]
6 | Cc1cccc(-c2cnc3c(c2)nc(-c2cccnc2N)n3-c2ccc(CNC(=O)c3ccccc3)cc2)c1 [Example 140, N-{4-[2-(2-aminopyridin-3-yl)-6-(3-methylphenyl)-3H-imidazo[4,5-b]pyridin-3-yl]benzyl}benzamide] | 1.1
7 | CNc1ccccc1C(=O)NCc1ccc(-n2c(-c3cccnc3N)nc3cccnc32)cc1 [Example 57] | 1.52
8 | Nc1ncccc1-c1nc2cccnc2n1-c1ccc(CNC(=O)CC2CCCC2)cc1 [Example 73] | 2.61
9 | COc1cccc(NC(=O)Cc2ccc(-n3c(-c4cccnc4N)nc4cccnc43)cc2)c1 [Example 119, hydrochloride] | 0.233
10 | COc1ccc2nc(-c3cccnc3N)n(-c3ccc(C(C)(C)C)cc3)c2n1 [Example 8] | 20.6
11 | Nc1ncccc1-c1nc2cccnc2n1-c1ccc(CNC(=O)CC(c2ccccc2)c2ccccc2)cc1 [Example 42] | 2.01
12 | CC(C)(C)C(=O)NCc1ccc(-n2c(-c3cccnc3N)nc3cccnc32)cc1 [Example 52, N-{4-[2-(2-aminopyridin-3-yl)-3H-imidazo[4,5-b]pyridin-3-yl]benzyl}-2,2-dimethylpropanamide] | 2.77
13 | Nc1ncccc1-c1nc2cccnc2n1-c1ccc(CC(=O)N2CCC(n3c(=O)[nH]c4ccccc43)CC2)cc1 [Example 107] | 1.43
14 | Cc1ccccc1C(=O)NCc1ccc(-n2c(-c3cccnc3N)nc3cccnc32)cc1 [Example 70] | 0.189
15 | Nc1ncccc1-c1nc2cccnc2n1-c1ccc(CNS(=O)(=O)c2cccnc2)cc1 [Example 94] | 0.142
16 | Nc1ncccc1-c1nc2cc(F)cnc2n1-c1ccc(CNC(=O)c2ccccc2)cc1 [Example 133, N-(4-(2-(2-aminopyridin-3-yl)-6-fluoro-3H-imidazo[4,5-b]pyridin-3-yl)benzyl)benzamide] | 0.106
17 | CNS(=O)(=O)Cc1ccc(-n2c(-c3cccnc3N)nc3cccnc32)cc1 [Example 13] | 0.507

Same assay, conditions: values not marked with "*"; read-out: Akt1 IC50, (AlphaScreen)

Row | SMILES | IC50 [µM]
18 | Cc1cnc2c(c1)nc(-c1cccnc1N)n2-c1ccc(CNC(=O)c2cccc(N(C)C)c2)cc1 [Example 211, N-(4-(2-(2-aminopyridin-3-yl)-6-methyl-3H-imidazo[4,5-b]pyridin-3-yl)benzyl)-3-(dimethylamino)benzamide] | 0.061
19 | CNC(=O)c1ccc(-c2ccc3nc(-c4cccnc4N)n(-c4ccc(C5(N)CCC5)cc4)c3n2)cc1 [Example 400, 4-(3-(4-(1-aminocyclobutyl)phenyl)-2-(2-aminopyridin-3-yl)-3H-imidazo[4,5-b]pyridin-5-yl)-N-methylbenzamide] | 0.013
20 | CC(C)(C)OC(=O)NCc1ccc(-n2c(-c3cccnc3N)nc3cc(-c4cccnc4)cnc32)cc1 [Example 250, tert-butyl 4-(2-(2-aminopyridin-3-yl)-6-(pyridin-3-yl)-3H-imidazo[4,5-b]pyridin-3-yl)benzylcarbamate] | 0.2
21 | Cc1cccc(S(=O)(=O)NCc2ccc(-n3c(-c4cccnc4N)nc4cc(Br)cnc43)cc2)c1 [Example 163, N-{4-[2-(2-aminopyridin-3-yl)-6-bromo-3H-imidazo[4,5-b]pyridin-3-yl]benzyl}-3-methylbenzenesulfonamide] | 0.4
22 | N#Cc1ccc(-c2ccc3nc(-c4cccnc4N)n(-c4ccc(CNC(=O)c5cccc(F)c5)cc4)c3n2)cc1 [Example 326, N-(4-(2-(2-aminopyridin-3-yl)-5-(4-cyanophenyl)-3H-imidazo[4,5-b]pyridin-3-yl)benzyl)-3-fluorobenzamide] | 0.65
23 | CC(C)(C)OC(=O)NCc1ccc(-n2c(-c3cccnc3N)nc3ccc(-c4cn[nH]c4)nc32)cc1 [Example 354, tert-butyl 4-(2-(2-aminopyridin-3-yl)-5-(1H-pyrazol-4-yl)-3H-imidazo[4,5-b]pyridin-3-yl)benzylcarbamate] | 0.15
24 | Cc1ccc2cc(NC(=O)Cc3ccc(-n4c(-c5cccnc5N)nc5ccc(-c6cccnc6)nc54)cc3)ccc2n1 [Example 260, 2-(4-(2-(2-aminopyridin-3-yl)-5-(pyridin-3-yl)-3H-imidazo[4,5-b]pyridin-3-yl)phenyl)-N-(2-methylquinolin-6-yl)acetamide] | 0.014
25 | CC(=O)Nc1cccc(C(=O)NCc2ccc(-n3c(-c4cccnc4N)nc4cc(C)cnc43)cc2)c1 [Example 229, 3-acetamido-N-(4-(2-(2-aminopyridin-3-yl)-6-methyl-3H-imidazo[4,5-b]pyridin-3-yl)benzyl)benzamide] | 0.025
26 | COc1ccc(-c2ccc3nc(-c4cccnc4N)n(-c4ccc(C5(N)CCC5)cc4)c3n2)cc1O [Example 429, 5-{3-[4-(1-aminocyclobutyl)phenyl]-2-(2-aminopyridin-3-yl)-3H-imidazo[4,5-b]pyridin-5-yl}-2-methoxyphenol] | 0.0095
27 | C[S+]([O-])c1ccc(-c2ccc3nc(-c4cccnc4N)n(-c4ccc(CNC(=O)c5cccc(F)c5)cc4)c3n2)cc1 (stereo not shown) [Example 315, N-(4-(2-(2-aminopyridin-3-yl)-5-(4-(methylsulfinyl)phenyl)-3H-imidazo[4,5-b]pyridin-3-yl)benzyl)-3-fluorobenzamide] | 0.036
28 | CS(=O)(=O)Nc1ccc(-c2ccc3nc(-c4cccnc4N)n(-c4ccc(C5(N)CCC5)cc4)c3n2)cc1 [Example 403, N-(4-{3-[4-(1-aminocyclobutyl)phenyl]-2-(2-aminopyridin-3-yl)-3H-imidazo[4,5-b]pyridin-5-yl}phenyl)methanesulfonamide] | 0.0045
29 | COc1cc(-c2ccc3nc(-c4cccnc4N)n(-c4ccc(C5(N)CCC5)cc4)c3n2)ccc1N [Example 417, 3-{3-[4-(1-aminocyclobutyl)phenyl]-5-(4-amino-3-methoxyphenyl)-3H-imidazo[4,5-b]pyridin-2-yl}pyridin-2-amine] | 0.002
30 | Nc1ncccc1-c1nc2ccc(-c3cccnc3)nc2n1-c1ccc(NC(=O)c2ccccc2)cc1 [Example 255, N-(4-(2-(2-aminopyridin-3-yl)-5-(pyridin-3-yl)-3H-imidazo[4,5-b]pyridin-3-yl)phenyl)benzamide] | 0.012
31 | CC(=O)Nc1cccc(-c2cnc3c(c2)nc(-c2cccnc2N)n3-c2ccc(CNC(=O)c3ccccc3)cc2)c1 [Example 174, N-(4-{6-[3-(acetylamino)phenyl]-2-(2-aminopyridin-3-yl)-3H-imidazo[4,5-b]pyridin-3-yl}benzyl)benzamide] | 0.038
32 | Nc1ncccc1-c1nc2ccc(-c3cccc(O)c3)nc2n1-c1ccc(C2(N)CCC2)cc1 [Example 389, 3-(3-(4-(1-aminocyclobutyl)phenyl)-2-(2-aminopyridin-3-yl)-3H-imidazo[4,5-b]pyridin-5-yl)phenol] | 0.0016
33 | Cc1cnc2c(c1)nc(-c1cccnc1N)n2-c1ccc(CNC(=O)CCC2CCCCC2)cc1 [Example 213, N-(4-(2-(2-aminopyridin-3-yl)-6-methyl-3H-imidazo[4,5-b]pyridin-3-yl)benzyl)-3-cyclohexylpropanamide] | 0.48
34 | Nc1ncccc1-c1nc2cccnc2n1-c1ccc(C(=O)Nc2ccc3c(c2)C(=O)OC3)cc1 [Example 182, 4-[2-(2-aminopyridin-3-yl)-3H-imidazo[4,5-b]pyridin-3-yl]-N-(3-oxo-1,3-dihydro-2-benzofuran-5-yl)benzamide] | 1.1
35 | CC(=O)Nc1cccc(NC(=O)Cc2ccc(-n3c(-c4cccnc4N)nc4ccc(C)nc43)cc2)c1 [Example 323, N-(3-acetamidophenyl)-2-(4-(2-(2-aminopyridin-3-yl)-5-methyl-3H-imidazo[4,5-b]pyridin-3-yl)phenyl)acetamide] | 0.15
36 | Cc1cnc2c(c1)nc(-c1cccnc1N)n2-c1ccc(CNC(=O)c2cncnc2)cc1 [Example 271, N-(4-(2-(2-aminopyridin-3-yl)-6-methyl-3H-imidazo[4,5-b]pyridin-3-yl)benzyl)pyrimidine-5-carboxamide] | 0.64
37 | Cc1cnc2c(c1)nc(-c1cccnc1N)n2-c1ccc(CNC(=O)C2Cc3ccccc3C2)cc1 [Example 215, N-(4-(2-(2-aminopyridin-3-yl)-6-methyl-3H-imidazo[4,5-b]pyridin-3-yl)benzyl)-2,3-dihydro-1H-indene-2-carboxamide] | 0.73
